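A five-concentration, 48-hour dose response in 96-well plates underlies each endpoint, interpolated linearly between surrounding concentrations. The concentration for full growth arrest is given as TGI.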

Holding throughout (assay): NCI tumour cell line growth inhibition, 48 h
Assay [1] deals with HCT-15 colon.
In assay [2] the test system is CAKI-1 renal.
Assay [3] has as its system 786-0 renal.
Assay [4] has as its system U251 CNS.
Assay [5] deals with SF-539 CNS.
The test system of assay [6] is SW-620 colon.
Assay [7] relates to SR leukemia.
The subject of assay [8] is KM12 colon.
Assay [9] deals with NCI-H460 lung.
The subject of assay [10] is HOP-62 NSCLC.
Assay [11] relates to COLO 205 colon.
Assay [12] concerns NCI-H23 lung.
Assay [13] concerns ACHN renal.
Assay [14] has as its system HL-60(TB) leukemia.
For assay [15], the system named is T-47D breast.
Assay [16] relates to TK-10 renal.
Assay [17] deals with HOP-92 NSCLC.
Assay [18] deals with A498 renal.
Assay [19] concerns BT-549 breast.

Turning to `O/N=C1/CCCc2nonc21`, the TGI in assay [1], in assay [2], in [3], in assay [4], in assay [5] and in [6] was more than 100 µM throughout. Moreover, the TGI in assay [7], in assay [8], in [9], in [10], in [11] and in [12] was more than 100 µM in each case. Moreover, the TGI in [13], in assay [14], in [15], in assay [16] and in [17] was more than 100 µM each time.

Take `CSc1nc2c3ccccc3ccn2c1C(=O)N/N=C/c1ccccc1`: the TGI was more than 100 µM in [1]; more than 40 µM in assay [2]; 42.3 µM in [3]; 37.7 µM in assay [4]; 9.53 µM in [5]; more than 100 µM in assay [6]. Further, the TGI was more than 100 µM in assay [7]; more than 100 µM in assay [8]; more than 73.7 µM in [9]; 27.2 µM in [10]; more than 100 µM in assay [18]; more than 100 µM in [11]. The TGI in assay [12] was more than 100 µM; in assay [13], 25.3 µM; in assay [14] it was more than 100 µM; in assay [15], more than 90.2 µM; in [17], more than 33.8 µM.

For the compound `Nc1[nH]c(=O)[nH]c(=O)c1Cc1cccc(Cl)c1`, the TGI in [1], in assay [2], in assay [3], in assay [4], in [5] and in assay [6] was more than 100 µM in each case. Moreover, the TGI in assay [19], in assay [8], in assay [9], in assay [10], in assay [18] and in [11] was more than 100 µM throughout. Further, the TGI in [12], in assay [13], in [15], in assay [16] and in assay [17] was more than 100 µM throughout.

As to `CNC(=O)N1N[C@H](c2ccccc2)[C@@H]1c1ccccc1`, the TGI in [1] was 64 µM; in assay [2] it was more than 100 µM; in assay [3] it was more than 100 µM; in [4], 43 µM; in assay [5], 33.3 µM; in assay [6] it was 77.7 µM. The TGI in assay [7] was 58.4 µM; in [19], 40.9 µM; in assay [8], 45.2 µM; in assay [9] it was 53.4 µM; in assay [10], more than 100 µM; in assay [18], 55.4 µM. The TGI in assay [11] was 38.8 µM; in [12], 47.9 µM; in [13], more than 100 µM; in assay [14], more than 100 µM; in assay [16], more than 100 µM; in [17] it was 91.2 µM.

As for `N#Cc1c(-c2ccccc2)cc(-c2ccccc2)n(C2OCC(O)C(O)C2O)c1=S` (stereo not drawn), the TGI in [1] came out at 60.6 µM; in [2], 61.5 µM; in assay [3], 49.1 µM; in assay [4] it was 30.4 µM; in [5], 41.9 µM; in assay [6], 33.5 µM. The TGI was 44 µM in assay [19]; 27.2 µM in assay [8]; 70.6 µM in [9]; 64.7 µM in assay [10]; 64.2 µM in assay [18]; 56.9 µM in assay [11]. Further, the TGI in assay [12] came to 46.4 µM; in assay [13], 38.1 µM; in [15], 26.6 µM; in assay [16], 58.2 µM.

As for `Cc1ccc(S(=O)(=O)N2CC(CCN)c3ccccc32)cc1` (stereo not drawn), the TGI is more than 100 µM in assay [1]; 23.8 µM in assay [2]; 14.7 µM in assay [3]; 18.4 µM in [4]; 8.59 µM in assay [5]; 18 µM in assay [6]. The TGI in assay [7] was more than 100 µM; in assay [19], 21.9 µM; in assay [8], more than 100 µM; in assay [9] it was more than 64.8 µM; in [10] it was more than 29.1 µM; in [18], 40.6 µM. In addition, the TGI in assay [11] was 24.3 µM; in assay [12], more than 52.6 µM; in [13], more than 53.2 µM; in assay [14] it was more than 100 µM; in assay [16], more than 51.1 µM; in [17] it was 52.7 µM.

Regarding `COc1ccc(C(=O)Oc2c(C#N)sc3c2c(=O)n(-c2ccccc2)c(=S)n3-c2ccccc2)cc1`, the TGI in assay [1] was 46.3 µM; in assay [2], 68.9 µM; in assay [3], more than 100 µM; in assay [4], more than 100 µM; in [5], 49.3 µM; in [6], more than 100 µM. Also, the TGI in assay [8] is 54.6 µM; in [9] it was more than 100 µM; in [10], 73.9 µM; in [18] it was 41.4 µM; in assay [11], 80.4 µM; in assay [12], 56.3 µM. In addition, the TGI is more than 100 µM in [13]; 49.7 µM in assay [14]; more than 100 µM in [15]; 76 µM in [16]; 67.5 µM in assay [17].

As for `O=c1n(-c2ccccc2)c(=O)n2c(-c3ccccc3)c(-c3ccccc3)n12`, the TGI in assay [1], in [2], in assay [3], in assay [4], in [5] and in [6] was more than 100 µM throughout. Also, the TGI in [7], in assay [19], in assay [8], in assay [9], in assay [10] and in assay [18] was more than 100 µM in each case. Besides, the TGI in [11], in assay [12], in [13], in assay [14], in [16] and in [17] was more than 100 µM each time.

The values above are taken from PubChem BioAssay (NCI).
